This is an account of results in patent publication US20250143290A1, “AGROCHEMICAL COMPOSITION COMPRISING AT LEAST ONE AGROCHEMICAL ACTIVE COMPONENT AND A SOLVENT” (MINAGRO SRL, priority 2022, published 2025).

A short description of data set [1]: Hansen and Hildebrand solubility parameters. From the text: The Hansen solubility parameters are used for predicting if one material will dissolve in another and form a (homogeneous) solution.
Furthermore, solvents with similar Hansen solubility parameters will have similar solubility characteristics, including which agrochemical active components will and which agrochemical active components will not dissolve in the solvents.

A further data set can be described thus: physchem. To be noted: for solubility: organic solvent or mixture, thermodynamic from solid. From the text: Said saturated solutions were subsequently analyzed by HPLC to determine the agrochemical active component concentration. The samples were centrifuged and filtered twice through 1.6 and 0.45 μm filters to remove any extraneous material prior to analysis.
For each combination of agrochemical active component, a calibration curve was established to plot the instrumental response, e.g., the analytical signal, changes with the concentration of the agrochemical active component.

Data set [2] relates to microorganisms of the inoculum.
Protocol: The test duration is 28 days. The vessels contained 250 ml of the inoculated buffered mineral salt medium and the test material (test substance or reference substance) as the sole carbon source. To each test series blanks (without test material) were set up to run in parallel. Incubation was conducted at 22±1° C. in diffuse light and agitation by magnetic stirrers. All analyses were conducted at least in duplicate. Oxygen consumption was continuously measured with a respirometer. The amount of oxygen taken up by the microorganisms during biodegradation (biological oxygen demand; BOD) is compared with the chemical oxygen demand (COD) of the test substance. The percent biodegradation of the test substance is calculated from the BOD in relation to the COD or alternative of the theoretical oxygen demand (ThOD) of the test substance. The test material (92 mg/L) was distributed in a thin layer on an inert carrier (glass fiber filter) and added directly to the aqueous medium.
In another data set the test system is Lactuca sativa. The data set is described as follows: Phytotoxicity study on lettuce. The note with it: lettuce Lucrecia RZ sprayed until saturation at 1%, 2%, 5% and 10%; 5 and 10 days after spraying. In kind it is in vivo. Here is the method: The aim of this experiment is to determine if these solvents can cause phytotoxicity on lettuce at different concentrations. Lettuce of the Lucrecia RZ variety was sown in potting soil and transplanted into 3L pots. For each of the solvents, four concentrations were tested: 1%, 2%, 5% and 10%. A control (water) was also performed. […] Fifteen replicates per treatment were conducted. A monitoring of the appearance of potential spots due to phytotoxicity is carried out 5 days and 10 days after spraying.

Take `O=C1CCCCC1` [Cyclohexanone]: in data set [1], the “Hansen Solubility Parameters δd” value was found to be 17.8 J/mL, the “Hansen Solubility Parameters δn” value came to 5.1 J/mL, the “Hansen Solubility Parameters δp” value turned out to be 6.3 J/mL and the “Hildebrand δ” value is 19.56 J/mL.
As for `CCOC(C)=O` [Ethyl Acetate], in data set [1], the “Hansen Solubility Parameters δd” value came out at 15.8 J/mL, the “Hansen Solubility Parameters δn” value worked out at 7.2 J/mL, the “Hansen Solubility Parameters δp” value was found to be 5.3 J/mL and the “Hildebrand δ” value is 18.15 J/mL.
As to `Nc1c(Cl)c(F)nc(OCC(=O)O)c1Cl` [Fluroxypyr], the Solubility in saturation in “physchem” worked out at 546.25 mg/mL. Also, the solubility in “physchem” (Solubility in saturation) was determined as 537 mg/mL.
Take `CC1=CC(=O)CC(C)(C)C1` [Isophorone]: in data set [1], the “Hansen Solubility Parameters δd” value turned out to be 16.6 J/mL, the “Hansen Solubility Parameters δn” value is 7.4 J/mL, the “Hansen Solubility Parameters δp” value was found to be 8.2 J/mL and the “Hildebrand δ” value is 19.94 J/mL.
In the case of `CC1(C)CCC(Cc2ccc(Cl)cc2)C1(O)Cn1cncn1` (stereo not shown) [Metconazole], the solubility in the data set “physchem” (Solubility in saturation) came to 210 mg/mL.
As for `COC(=O)Nc1cccc(OC(=O)Nc2cccc(C)c2)c1` [Phenmidipham], the Solubility in saturation amounted to 35.66 mg/mL in the data set “physchem” (in n-butyl THF, saturated solution MT 181, HPLC, pure active ingredient) and 37.11 mg/mL in “physchem” (in t-butyl THF, saturated solution MT 181, HPLC, pure active ingredient).
Consider `OC(Cc1ccccc1Cl)(Cn1nc[nH]c1=S)C1(Cl)CC1` (stereo not shown) [Prothioconazole], for which the solubility in “physchem” was 341 mg/mL.
In the case of `CC(COc1ccc(Oc2ccccc2)cc1)Oc1ccccn1` (stereo not shown) [Pyriproxyfen], in the data set “physchem” (Solubility in saturation), the solubility is 631 mg/mL.
`OCC1CCCO1` (stereo not shown) [THFA TetraHydroFurfurylAlcohol, TetraHydroFurfurylAlcohol]: in data set [1], the “Hansen Solubility Parameters δd” value turned out to be 17.8 J/mL, the “Hansen Solubility Parameters δn” value was found to be 10.2 J/mL, the “Hansen Solubility Parameters δp” value is 8.2 J/mL and the “Hildebrand δ” value was 22.09 J/mL.
As to `CC(C)(C)C(O)(CCc1ccc(Cl)cc1)Cn1cncn1` (stereo not shown) [Tebuconazole], the solubility in the data set “physchem” (Solubility in saturation) was 181 mg/mL; in “physchem” (t-butyl THF, Solubility in saturation, in t-butyl THF, saturated solution MT 181, HPLC, pure active ingredient) it was 188 mg/mL.
Turning to `CCCCOCC1CCCO1` (stereo not shown) [n-butyl THF, 2-(butoxymetyl)tetrahydrofuraan], the “inhibition of the microorganisms of the inoculum” value in data set [2] was “non-inhibitory”. Moreover, in data set [1], the “Hansen Solubility Parameters δd” value was 16.47 J/mL, the “Hansen Solubility Parameters δn” value was 5.96 J/mL, the “Hansen Solubility Parameters δp” value worked out at 4.74 J/mL and the “Hildebrand δ” value was found to be 18.15 J/mL. Further, the “phytotoxicity on salads (spots)” value in the data set with Lactuca sativa is “absence of phytotoxicity”.
For `CCCCOC(C)=O` [n-butyl acetate], in data set [1], the “Hansen Solubility Parameters δd” value was found to be 15.8 J/mL, the “Hansen Solubility Parameters δn” value stood at 6.3 J/mL, the “Hansen Solubility Parameters δp” value stood at 3.7 J/mL and the “Hildebrand δ” value was found to be 17.41 J/mL.
The corresponding values for `Cc1ccc(C)cc1` [p-Xylène] are 17.6 J/mL, 3.1 J/mL, 1 J/mL and 17.90 J/mL.
Regarding `CC(C)(C)OCC1CCCO1` (stereo not shown) [t-butyl THF, 2-(tert-Butoxymethyl)tetrahydrofuran], the “phytotoxicity on salads (spots)” value with Lactuca sativa is “absence of phytotoxicity”.
